From patent publication US20090156609A1, “TREATMENT OF POST-TRAUMATIC STRESS DISORDER WITH TETRAHYDROINDOLONE ARYLPIPERZAINE COMPOUNDS” (priority 2007, published 2009)

How the values were obtained:
[1] = Neuromuscular coordination (rotarod); design: species or system mice; conditions: male, Swiss Webster (CFW), mouse, in vivo, sc; subcutaneous administration, tested 30 minutes after dosing; read-out: ED50 (ability to remain on the rotarod)
Procedure: This model can be used to determine the dose of a compound or composition at which unwanted side effects (muscle tone/motor coordination deficits) occur. Animals (C57 Mice) are placed on a rotarod treadmill (model V EE/85, Columbus Instruments, Columbus, Ohio) accelerating from 1 to 80 revolutions/4 minutes. All mice are given two control trials at least 12 hours before oral administration evaluation of compounds. Mice are tested on the rotarod 30 minutes after administration of compounds. The number of seconds each mouse remained on the rotarod is recorded.
Doses at which the coordination of an animal is decreased or at which its motor function is altered, such that the ability of the animal to remain on the rotarod is reduced, are determined. Doses below this are selected for further evaluation.
Male Swiss Webster (CFW) mice were placed on a rotarod (model V EE/85, Columbus Instruments, Columbus, Ohio) accelerating from 1 to 80 revolutions/4 minutes. All mice were given two control trials at least 12 hours before administration of the present compounds for evaluation. Mice were tested on the rotarod 30 minutes after subcutaneous administration of compounds. The number of seconds each mouse remained on the rotarod was recorded. Compounds that decreased coordination or altered motor function reduced the ability of the animal to remain on the rotarod.

[2] = test system: C-57 mice; assay: Conditioned avoidance response (CAR) model; format: in vivo
Excerpt: The Condition Avoidance Responding (CAR, active avoidance) model is a measure of cognitive and attention impairment. It evaluates the disruption of avoidance (increased latency) without disruption of escape (extrapyramidal motor function).
The training of C-57 mice consists of 20 trials with variable inter-trial intervals (trained to 80% Avoidance Criteria). After a one-minute acclimation period, the house light and an acoustic 90 decibel tone (conditioned stimuli) are presented. A response (crossing to dark compartment) within 5 seconds ends the trial and trial is recorded as avoidance response (CAR). […] To avoid shock, animals learn to move from the lighted side of the − chamber to the dark side when the cue is presented (avoidance) or moved when the shock is administered (escape). Compounds that disrupt cognition in the CAR model can be excluded from candidate consideration.
(§1) The present compounds were tested in the conditioned avoidance response (CAR) model and in the Spontaneous Activity model described above.

[3] = test system: mice; assay: Spontaneous Activity model (locomotor activity); format: in vivo
Excerpt: Ambulatory and non-ambulatory activity can be used to test spontaneous and drug-induced motor activity. The test can be used to profile the potential for a drug to induce hyperactivity or sedation.
In this model, Kinder Scientific photobeam activity monitors are used to record the ambulatory and non-ambulatory motor activity. The monitors track the photobeam breaks made by the animal that are used to calculate the number of ambulatory and fine (non-ambulatory) motor movements. A drug-induced increase in activity can indicate the potential for an adverse event such as hyperactivity. A drug-induced decrease in response can indicate the potential for an adverse event such as sedation. Doses at which no significant change in activity are recorded, and more preferably at which no change in activity are recorded, can be selected for further evaluation.
as §1

[4] = test system: C57/BL6 male mice; assay: Contextual fear conditioning in a passive avoidance model; format: in vivo
Procedure: The passive avoidance model is an example of a fear conditioning behavior. To perform this test, animals were trained and tested in a Kinder Scientific avoidance system consisting of a shuttle box with a shock grid floor. On day one, mice were introduced to the system by being allowed to move freely between a darkened side and a lighted side of the shuttle box for 3 minutes after a 1 minute acclimation in the dark. Day two (24 hours later) was similar to the first day except that animals received a 1.0 mA foot shock after crossing to the dark compartment. Vehicle or test compounds are administered subcutaneously 30 minutes prior to this training day. Twenty four hours after the training day, animals were put back in the shuttle box and after a minute acclimation period in the dark, the latency to cross from the lighted to the dark compartment (now with the shock off) was recorded.
Response to the development of contextual fear conditioning in an open field model was evaluated in C57/BL6 male mice using an avoidance shuttle chamber (Kinder Scientific, Poway, Calif.). On Day 1, mice were allowed to run through the shuttle box for 3 minutes in order to acclimate them to it. One side was light and the other was dark. One Day 2, animals were dosed subcutaneously […] prior to training. […] The latency to cross to the dark side was recorded, with a 3 minute maximum testing duration.

[5] = subcutaneous, doses of up to 10 mg/kg

- effect in the CAR model compared to vehicle treated mice [2, 5]: did not produce any effect
- effect in the Spontaneous Activity model compared to vehicle treated mice [3, 5]: did not produce any effect
Compound: O=C1CCCc2c1ccn2CCN1CCN(c2cccc(Cl)c2)CC1 [Compound A, 1-{2-[4-(3-Chlorophenyl)piperazin-1-yl]ethyl}-1,5,6,7-tetrahydroindol-4-one]
- ED50 at 30 min [1]: 23 mg/kg
- minimum effective dose, Conditioned Avoidance Response ([2]; models unwanted side effects): >10 mg/kg
- minimum effective dose, Locomotor Activity ([3]; models unwanted side effects): >10 mg/kg
- latency to cross over to the dark side compared to vehicle (FIG. 3) ([4]; dosed subcutaneously 20 minutes prior to training, tested 24 hours later): showed a reduction in latency to cross over to the dark side
- duration of the improvement in latency ([4]; testing on Days 3-5 post-shock administration): three consecutive days of testing
